Assay results as given in patent US7678390B2, “Carbon monoxide as a biomarker and therapeutic agent” (priority 1999, dated 2010).

System: RAW 264.7 macrophages
Experiment: LPS-induced cytokine production in macrophages (ELISA, Western)
Assay type: cell-based, mouse
Settings: for TNF-α: RAW 264.7 macrophages
Text: Animals. Male C57BL/6 and IL-10 (−/−) mice were purchased from Jackson Laboratory (Bar Harbor, Me.), and allowed to acclimate for one week with rodent chow and water ad libitum. The MKK (−/−) mice were generated as previously described [Lu, et al., EMBO J. 18:1845-1857 (1999)]. Wild type littermates were used as controls. All animals were housed in accordance with guidelines from the American Association for Laboratory Animal Care and Research Protocols and were approved by the Animal Care and Use Committee of Yale University School of Medicine. Reagents. All reagents were purchased from Sigma Chemical Co. (St Louis, Mo.) unless specified otherwise. Plasmid Construct. Plasmid pSFFV/HO-1 was constructed by insertion of the rat HO-1 cDNA [Shibahara, et al., Proc. Natl. Acad. Sci. USA. 82: 7865-7869 (1985)] downstream of the Friend spleen focus-forming virus 5′ long-terminal repeat in the mammalian expression vector pSFFV/neo [Fuhlbrigge, et al, Proc. Natl. Acad. Sci. USA. 85: 5649-5653 (1988)] (kindly provided by Stanley Korsmeyer). Transfection. Stable transfections were carried out by the calcium phosphate precipitation technique as previously described [Alam, J., J. Biol. Chem. 269: 25049-25056 (1994)]. Briefly, RAW cells were plated (1×10^6/10 cm plate) and 16 h later, transfected with […] of pSFFV/neo or pSFFV/HO-1. Cells were exposed to the DNA-CaPO4 precipitate for 6 h, shocked by a 1 min treatment with glycerol in phosphate-buffered saline and cultured for an additional 24 h in complete medium before addition of G418. Transfectants were selected over a 3-week period in the presence of G418 (up to […]) and individual clones were isolated by limited dilution. Cell Culture Experimentation. RAW 264.7 mouse peritoneal macrophages were purchased from […] (Rockville, Md.) and primary culture of rat pulmonary vascular smooth muscle cells were harvested from male Sprague Dawley rats (250-300 g) as previously described [Gunther, et al., J. Cell. Biol. 92: 289-298 (1982).]. Both cell types were grown in DMEM containing 10% FBS and gentamicin ([…]) in a humidified atmosphere of 5% CO2/balanced air or 250 ppm CO/5% CO2/balanced air. After a 2 h pretreatment with either CO or air, LPS ([…]) or sterile saline was added to the culture media and the culture plates were returned to the chamber(s). At various time points, cell plates were removed from the chamber to collect media and/or cells for Western analysis. CO Exposures. Mice or macrophages were exposed to compressed air or 250 ppm CO. For cell culture experiments, 5% CO2 was also present for buffering requirements. CO at a concentration of 1% (10,000 ppm) in compressed air was mixed with compressed air with or without CO2 in a stainless steel mixing cylinder before delivery into the exposure chamber. Flow into the 3.70-ft^2 plexiglass animal chamber was maintained at 12 L/min and into the 1.2 ft^2 cell culture chamber at a flow of 2 L/min. The cell culture chamber was humidified and maintained at 37° C. A CO analyzer (Interscan, Chatsworth, Calif.) was used to measure CO levels continuously in the chambers. Gas samples were taken by the analyzer through a port in the top of the chambers at a rate of 1 L/min and analyzed by electrochemical detection, with a sensitivity of 10-600 ppm. Concentration levels were measured hourly and there were no fluctuations in the CO concentrations once the chamber had equilibrated (approximately 5 min). Animal Experimentation. Mice were prebled from the retroorbital sinus (0.25 ml) and then exposed to CO (250 ppm) or room air for 1 h prior to administration of LPS (1 mg/kg, i.p.), E. coli serotype O127:B8. 1 and 16 h thereafter, they were removed from the exposure apparatus individually and a blood sample was obtained via the retroorbital sinus. After the blood collection, the mice were immediately returned to the exposure chamber. […]

Structure (SMILES): Nc1nc2c(nc(Br)n2[C@@H]2O[C@@H]3COP(=O)(O)O[C@H]3[C@H]2O)c(=O)[nH]1 [8-Br-cGMP, reference compound]
- TNF-α (with LPS): 530 ± 35 pg/mL
- TNF-α (without LPS): 18 ± 6 pg/mL
- effect on LPS-induced TNF-α production (added to macrophage culture followed by LPS): no effect
